Experimental data: article PMC12062478, “Screening herbal and natural product libraries to aid discovery of novel allosteric modulators of human P2X7” (Purinergic Signalling, 2024)

Experiments:
[1] = target: T1, P2X7 (Homo sapiens, UniProt Q99572); experiment: ATP-induced YO-PRO-1 dye uptake in HEK-hP2X7 cells; assay type: cell-based
T1 construct: expressed in transfected cells
T1 sequence (Q99572 1-595): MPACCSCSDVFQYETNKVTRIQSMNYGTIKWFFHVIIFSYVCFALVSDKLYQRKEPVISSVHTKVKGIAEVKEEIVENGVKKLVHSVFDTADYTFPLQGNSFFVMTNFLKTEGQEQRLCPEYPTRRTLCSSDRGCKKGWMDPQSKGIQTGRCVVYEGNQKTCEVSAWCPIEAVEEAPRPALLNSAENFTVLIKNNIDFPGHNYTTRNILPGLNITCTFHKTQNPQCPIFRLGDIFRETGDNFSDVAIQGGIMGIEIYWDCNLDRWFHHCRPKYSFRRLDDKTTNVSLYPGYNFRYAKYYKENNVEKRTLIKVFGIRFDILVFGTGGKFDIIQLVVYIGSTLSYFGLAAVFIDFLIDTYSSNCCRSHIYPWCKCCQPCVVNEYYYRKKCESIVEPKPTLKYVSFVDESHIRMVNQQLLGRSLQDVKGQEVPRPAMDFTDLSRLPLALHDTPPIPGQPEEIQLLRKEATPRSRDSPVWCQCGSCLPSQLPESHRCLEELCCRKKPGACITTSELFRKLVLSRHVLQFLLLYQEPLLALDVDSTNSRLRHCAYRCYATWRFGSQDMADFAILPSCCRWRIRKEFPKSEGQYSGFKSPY
Method: HEK-hP2X7 or HEK-hP2X4 cells were plated at 2.5 × 10^4 cells per well (100 µL volume) the day before experiments into poly-D-lysine (Merck Millipore) coated 96-well plates (NUNC, Fisher Scientific #167-008). The membrane impermeant dye YO-PRO-1 iodide (Life Technologies, Fisher Scientific) was used at a final concentration of 2 µM in low divalent buffer (145 mM NaCl, 5 mM KCl, 0.2 mM CaCl2, 13 mM glucose, 10 mM HEPES, pH 7.3, osm 300–310). Media were removed from the plate, and 90 µL of YO-PRO-1 buffer was added per well. Plates were warmed to 37 °C for 5 min before recording. Data was acquired on a Flexstation 3 plate reader (Molecular Devices) using excitation wavelength 490 nm, emission wavelength 520 nm, and six reads per well (PMT medium). […] […] Pipette height was set to 80 µL and the rate of injection was 4.
YO-PRO-1 dye uptake assay data is plotted as a percentage of control where control responses are measured in the absence of plant extract. Cell viability data is plotted as a percentage of control or background-corrected fluorescence data. Concentration–response graphs were plotted using GraphPad Prism v6 with a non-linear regression fit (variable slope). IC50 values were generated from collated datasets from a minimum of three independent experiments. Statistical differences were determined by one-way ANOVA statistical tests performed using GraphPad Prism v6 with Dunnett’s multiple comparison post hoc test. Significance was taken as P ≤ 0.05.
We acquired a natural product library (Set IV) containing 419 compounds from NCI DTP and tested these on P2X7 responses using a YO-PRO-1 dye uptake in HEK293 cells stably expressing human P2X7 (HEK-hP2X7). […] This allowed us to assess for any immediate effect of the injected compound, and secondly, it allowed for any potential negative modulators to be pre-incubated with P2X7.

[2] = target: T2, hP2X7 (Homo sapiens, UniProt Q99572); experiment: Whole-cell patch-clamp electrophysiology in HEK-hP2X7 cells; assay type: cell-based
T2 sequence (Q99572 1-595): T1 sequence (Q99572 1-595)
Method: Stably expressing HEK-hP2X7 cells were plated onto 13-mm glass coverslips 24 h prior to use. Membrane currents were recorded in the whole-cell patch-clamp configuration using an EPC10 amplifier (HEKA Elektronik) and borosilicate glass electrodes (TF-150 World Precision Instruments), resistance […] when filled with standard internal solution (145 mM NaCl, 10 mM HEPES, 10 mM EGTA, pH 7.3). Cells were voltage-clamped at − 60 mV, and dialysis of intracellular contents was performed for 1 min prior to experimental procedures. Cells were continuously perfused by gravity feed with standard divalent buffer solution (145 mM NaCl, 5 mM KCl, 2 mM CaCl2, 1 mM MgCl2, 13 mM glucose, 10 mM HEPES, pH 7.3) prior to seal formation, and low divalent buffer solution was used for agonist and PAM application. Agonists were applied using a computer-controlled fast-flow system (RSC-160; Bio-Logic Scientific Instruments) with the perfusion capillaries placed in close proximity to the cell under investigation.
(§1) Fig. 6 Dioscin enhances P2X7-dependent pore formation and potentiates channel opening. A Dioscorea nipponica (organic) plant extract (30 µg/mL) increased ATP-dependent YO-PRO-1 iodide uptake. AZ10606120 (10 µM, grey bars) was added to block hP2X7. B YO-PRO-1 uptake following a co-stimulation of HEK-hP2X7 cells with 200 µM ATP ± the named compounds in the presence or absence of AZ10606120. YO-PRO-1 uptake was quantified between 50 and 300 s (n = 5). C Whole-cell patch-clamp recordings were performed at room temperature. Cells were voltage-clamped at − 60 mV, and responses to a 5-s stimulation of ATP (100 µM) followed by a 5-s stimulation of ATP (100 µM) + dioscin/diosgenin (10 µM) were measured from HEK-hP2X7 cells. Representative traces are shown. D Summary of normalised current amplitudes represented as a fold change compared to ATP responses in the absence of dioscin/diosgenin (n = 10–18 cells). E Concentration response to ATP in the presence of dioscin (10 µM, green) or vehicle (DMSO, black) using YO-PRO-1 uptake assay in HEK-hP2X7 and F HEK-293 cells. […]

[3] = tested on: non-transfected HEK-293 cells; experiment: YO-PRO-1 dye uptake in non-transfected HEK-293 cells; assay type: cell-based, human; settings: 10 µM, in the presence of ATP
Method: HEK-hP2X7 or HEK-hP2X4 cells were plated at 2.5 × 10^4 cells per well (100 µL volume) the day before experiments into poly-D-lysine (Merck Millipore) coated 96-well plates (NUNC, Fisher Scientific #167-008). The membrane impermeant dye YO-PRO-1 iodide (Life Technologies, Fisher Scientific) was used at a final concentration of 2 µM in low divalent buffer (145 mM NaCl, 5 mM KCl, 0.2 mM CaCl2, 13 mM glucose, 10 mM HEPES, pH 7.3, osm 300–310). Media were removed from the plate, and 90 µL of YO-PRO-1 buffer was added per well. Plates were warmed to 37 °C for 5 min before recording. Data was acquired on a Flexstation 3 plate reader (Molecular Devices) using excitation wavelength 490 nm, emission wavelength 520 nm, and six reads per well (PMT medium). Compounds or plant extracts at 10X final concentration were automatically injected at 30 s, and then, ATP was automatically injected at 90 s from a 96-well V-bottomed drug plate (Greiner). This enabled cells to be pre-treated with compounds/plant extracts for 60 s before the agonist was injected. […]
Fig. 6 Dioscin enhances P2X7-dependent pore formation and potentiates channel opening. […] YO-PRO-1 uptake was quantified between 50 and 300 s (n = 5). […] Cells were voltage-clamped at − 60 mV, and responses to a 5-s stimulation of ATP (100 µM) followed by a 5-s stimulation of ATP (100 µM) + dioscin/diosgenin (10 µM) were measured from HEK-hP2X7 cells. […]

[4] = tested on: HEK-293 cells; experiment: Cell viability assay (AlamarBlue) in non-transfected HEK-293 cells; assay type: cell-based, human; settings: 10 µM, 24 h
Method: Cells were plated at 2 × 10^4 cells/well in Nunc 96-well plates (Fisher Scientific #167-008) 24 h prior to stimulation with ATP 500 µM or 3 mM in combination with identified positive or negative crude plant extracts, respectively, or with purified compounds (10 µM) for 24 h. Following incubation, resazurin (0.1 mg/mL in PBS, Sigma-Aldrich) was added to cells for 2 h at 37 °C and fluorescence was measured on a Flexstation 3 plate reader (excitation 570 nm; emission 600 nm).
as §1, with “cells).” for “cells). E Concentration response to ATP in the presence of dioscin (10 µM, green) or vehicle (DMSO, black) using YO-PRO-1 uptake assay in HEK-hP2X7 and F HEK-293 cells.”

[5] = tested on: HEK293 cells; experiment: Propidium iodide staining of HEK293 cells (membrane permeabilisation); assay type: cell-based, human
Method: Fig. 6 Dioscin enhances P2X7-dependent pore formation and potentiates channel opening. A Dioscorea nipponica (organic) plant extract (30 µg/mL) increased ATP-dependent YO-PRO-1 iodide uptake. AZ10606120 (10 µM, grey bars) was added to block hP2X7. B YO-PRO-1 uptake following a co-stimulation of HEK-hP2X7 cells with 200 µM ATP ± the named compounds in the presence or absence of AZ10606120. YO-PRO-1 uptake was quantified between 50 and 300 s (n = 5). C Whole-cell patch-clamp recordings were performed at room temperature. Cells were voltage-clamped at − 60 mV, and responses to a 5-s stimulation of ATP (100 µM) followed by a 5-s stimulation of ATP (100 µM) + dioscin/diosgenin (10 µM) were measured from HEK-hP2X7 cells. Representative traces are shown. D Summary of normalised current amplitudes represented as a fold change compared to ATP responses in the absence of dioscin/diosgenin (n = 10–18 cells). E Concentration response to ATP in the presence of dioscin (10 µM, green) or vehicle (DMSO, black) using YO-PRO-1 uptake assay in HEK-hP2X7 and F HEK-293 cells. […] H HEK-293 cells were treated with dioscin or CK (10 µM) for 10 min and stained with propidium iodide to reveal permeabilised cells. Images taken with EVOS microscope

[6] = Cytotoxicity of purified glycoside (data not shown); assay type: cell-based

Compound	Sensitivity of the potentiated ATP response to P2X7 antagonist AZ10606120 ([1]; AZ10606120 10 µM)	Effect on YO-PRO-1 dye uptake with 200 µM ATP ([1]; co-stimulation with 200 µM ATP)	Effect on ATP concentration–response curve ([1]; compound 10 µM)	Effect on P2X7 responses ([1]; purified glycosides/aglycone from potentiating extracts)	Potentiation of hP2X7 ion channel opening ([2]; 10 µM with ATP 100 µM, 5-s application, −60 mV)	Ion channel opening by compound alone ([2]; short 5-s application)	YO-PRO-1 dye uptake in non-transfected cells [3]	Cell death in non-transfected HEK-293 cells [4]	Application time after which membrane permeabilisation was observed [5] [min]	Propidium iodide staining ([5]; 10 µM, within 10 min of addition)	Cytotoxicity [6]
C[C@@H]1CC[C@@]2(OC1)O[C@H]1C[C@H]3[C@@H]4CC=C5C[C@@H](O[C@@H]6O[C@H](CO)[C@@H](O[C@@H]7O[C@@H](C)[C@H](O)[C@@H](O)[C@H]7O)[C@H](O)[C@H]6O[C@@H]6O[C@@H](C)[C@H](O)[C@@H](O)[C@H]6O)CC[C@]5(C)[C@H]4CC[C@]3(C)[C@H]1[C@@H]2C [Dioscin, dioscin]	could be reduced with AZ10606120	able to enhance YO-PRO-1 dye uptake	increase in the maximum response with no leftward shift	could effectively potentiate P2X7 responses	could potentiate hP2X7 ion channel opening	not inducing ion channel opening itself	increase YO-PRO-1 dye uptake in non-transfected HEK-293 cells in the presence of ATP	induce cell death	> 10	induce propidium iodide staining	–
CC1(C)CC[C@]2(C(=O)O)CC[C@]3(C)C(=CC[C@@H]4[C@@]5(C)CC[C@H](O[C@@H]6O[C@H](C(=O)O)[C@@H](O)[C@H](O[C@@H]7OC[C@@H](O)[C@H](O)[C@H]7O)[C@H]6O)C(C)(C)[C@@H]5CC[C@]43C)[C@@H]2C1 [Momordin Ic, momordin Ic]	–	–	–	–	–	–	–	–	–	–	high level of cytotoxicity
